Assays:
[1] = target: 5-HT Transporter (Homo sapiens, UniProt P31645); type: binding
[2] = Sanchez and Hyttel 1999; cited from earlier work
[3] = target: NE Transporter (Homo sapiens, UniProt P23975); assay: Human NE transporter IC50/Ki; type: binding
[4] = target: DA Transporter (Homo sapiens, UniProt Q01959); type: binding
[5] = target: T1, NE uptake (Rattus norvegicus, UniProt Q63380); assay: Inhibition of norepinephrine reuptake into rat brain synaptosomes; type: biochemical; details: functional monoamine uptake
T1 construct: norepinephrine (NE) and dopamine into similarly prepared synaptosomes; from tissue; host or cells: rat brain synaptosomes

[6] = target: T2, 5-HT uptake (Rattus norvegicus, UniProt P31652); assay: Inhibition of reuptake of radiolabeled serotonin into rat brain synaptosomes; type: biochemical; details: functional monoamine uptake
T2 construct: synaptosomes prepared from various regions of rat brains; from tissue; host or cells: rat brain synaptosomes

[7] = target: T3, DA uptake (Rattus norvegicus, UniProt P23977); assay: Inhibition of dopamine reuptake into rat brain synaptosomes; type: biochemical; details: functional monoamine uptake
T3 construct: norepinephrine (NE) and dopamine into similarly prepared synaptosomes; from tissue; host or cells: rat brain synaptosomes

[8] = target: 5-HT Transporter (Rattus norvegicus, UniProt P31652); assay: Rat 5-HT transporter IC50/Ki; type: binding
[9] = tested on: cytochrome P450 enzymes; details: P450 4A, 2C19, 2D6, 1A2, 2C9, 2E1; cited from earlier work
[10] = tested on: receptors for various neurotransmitters, enzymes, other reuptake sites; details: acetylcholine, histamine, norepinephrine, dopamine receptors, monoamine oxidase; cited from earlier work

T3 sequence (P23977 whole entry): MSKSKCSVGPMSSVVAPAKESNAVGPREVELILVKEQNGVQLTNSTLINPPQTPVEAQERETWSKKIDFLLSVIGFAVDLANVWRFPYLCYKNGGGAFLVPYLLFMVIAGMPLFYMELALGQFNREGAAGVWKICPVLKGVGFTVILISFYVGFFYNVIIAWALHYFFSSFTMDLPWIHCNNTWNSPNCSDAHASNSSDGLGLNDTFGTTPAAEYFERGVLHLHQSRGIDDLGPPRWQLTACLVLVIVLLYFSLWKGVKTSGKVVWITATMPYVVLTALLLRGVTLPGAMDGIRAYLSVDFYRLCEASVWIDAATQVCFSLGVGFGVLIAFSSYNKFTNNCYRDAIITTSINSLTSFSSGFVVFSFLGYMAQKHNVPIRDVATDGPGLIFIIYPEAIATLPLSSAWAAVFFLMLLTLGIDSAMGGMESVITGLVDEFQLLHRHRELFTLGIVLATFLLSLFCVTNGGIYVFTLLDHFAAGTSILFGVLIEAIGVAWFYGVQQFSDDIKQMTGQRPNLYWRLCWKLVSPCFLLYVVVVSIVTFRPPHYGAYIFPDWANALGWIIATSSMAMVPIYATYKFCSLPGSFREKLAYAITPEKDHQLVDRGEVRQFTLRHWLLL
Sequence of DA Transporter (Q01959 whole entry): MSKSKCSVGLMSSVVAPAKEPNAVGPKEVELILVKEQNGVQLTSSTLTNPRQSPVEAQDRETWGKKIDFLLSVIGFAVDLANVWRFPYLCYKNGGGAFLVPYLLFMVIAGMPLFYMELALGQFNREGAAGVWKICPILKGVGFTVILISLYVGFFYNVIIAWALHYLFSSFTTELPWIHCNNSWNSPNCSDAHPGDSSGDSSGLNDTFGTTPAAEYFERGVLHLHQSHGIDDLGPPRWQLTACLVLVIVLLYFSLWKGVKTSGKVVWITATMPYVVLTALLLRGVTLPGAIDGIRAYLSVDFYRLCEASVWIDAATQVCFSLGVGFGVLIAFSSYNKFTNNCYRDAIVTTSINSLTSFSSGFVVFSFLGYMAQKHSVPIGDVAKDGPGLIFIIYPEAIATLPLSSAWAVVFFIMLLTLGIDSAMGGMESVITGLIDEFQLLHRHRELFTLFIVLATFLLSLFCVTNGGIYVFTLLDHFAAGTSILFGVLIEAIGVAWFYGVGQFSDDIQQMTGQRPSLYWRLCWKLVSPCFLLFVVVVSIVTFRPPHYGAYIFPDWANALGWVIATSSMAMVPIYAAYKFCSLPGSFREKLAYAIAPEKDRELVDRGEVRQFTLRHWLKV
T1 sequence (Q63380 1-617): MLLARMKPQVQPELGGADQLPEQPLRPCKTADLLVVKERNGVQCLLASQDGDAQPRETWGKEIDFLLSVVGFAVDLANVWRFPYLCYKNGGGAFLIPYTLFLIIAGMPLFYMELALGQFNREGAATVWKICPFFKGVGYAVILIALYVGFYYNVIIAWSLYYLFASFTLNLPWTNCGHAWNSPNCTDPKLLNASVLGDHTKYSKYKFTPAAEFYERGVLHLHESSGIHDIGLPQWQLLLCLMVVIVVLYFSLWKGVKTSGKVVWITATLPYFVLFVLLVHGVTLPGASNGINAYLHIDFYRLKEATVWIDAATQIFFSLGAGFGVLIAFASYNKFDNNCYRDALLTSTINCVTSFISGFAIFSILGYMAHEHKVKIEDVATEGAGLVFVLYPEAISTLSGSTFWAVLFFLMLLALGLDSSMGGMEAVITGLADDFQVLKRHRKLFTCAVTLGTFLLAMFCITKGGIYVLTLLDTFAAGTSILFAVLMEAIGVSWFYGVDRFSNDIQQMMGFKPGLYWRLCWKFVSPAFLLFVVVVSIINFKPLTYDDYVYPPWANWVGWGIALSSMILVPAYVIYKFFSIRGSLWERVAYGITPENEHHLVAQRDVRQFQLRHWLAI
Sequence of 5-HT Transporter (Rattus norvegicus, UniProt P31652) (P31652 whole entry): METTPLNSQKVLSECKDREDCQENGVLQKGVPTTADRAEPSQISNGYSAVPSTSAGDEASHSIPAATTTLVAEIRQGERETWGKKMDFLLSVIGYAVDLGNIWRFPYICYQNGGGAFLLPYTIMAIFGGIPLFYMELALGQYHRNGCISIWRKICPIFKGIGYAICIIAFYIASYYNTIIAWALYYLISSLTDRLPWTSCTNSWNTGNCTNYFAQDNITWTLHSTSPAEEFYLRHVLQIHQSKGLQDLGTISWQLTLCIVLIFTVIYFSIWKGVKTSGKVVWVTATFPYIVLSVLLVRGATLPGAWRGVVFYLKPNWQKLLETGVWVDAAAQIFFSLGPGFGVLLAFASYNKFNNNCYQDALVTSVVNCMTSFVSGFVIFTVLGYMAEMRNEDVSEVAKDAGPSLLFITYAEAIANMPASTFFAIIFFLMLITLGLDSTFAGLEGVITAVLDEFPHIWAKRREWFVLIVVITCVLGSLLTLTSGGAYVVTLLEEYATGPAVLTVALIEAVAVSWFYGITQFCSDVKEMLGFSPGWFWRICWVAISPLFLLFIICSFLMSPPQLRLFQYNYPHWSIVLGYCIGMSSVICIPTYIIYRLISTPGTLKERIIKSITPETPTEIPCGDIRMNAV
T2 sequence (P31652 whole entry): as above
Sequence of NE Transporter (P23975 whole entry): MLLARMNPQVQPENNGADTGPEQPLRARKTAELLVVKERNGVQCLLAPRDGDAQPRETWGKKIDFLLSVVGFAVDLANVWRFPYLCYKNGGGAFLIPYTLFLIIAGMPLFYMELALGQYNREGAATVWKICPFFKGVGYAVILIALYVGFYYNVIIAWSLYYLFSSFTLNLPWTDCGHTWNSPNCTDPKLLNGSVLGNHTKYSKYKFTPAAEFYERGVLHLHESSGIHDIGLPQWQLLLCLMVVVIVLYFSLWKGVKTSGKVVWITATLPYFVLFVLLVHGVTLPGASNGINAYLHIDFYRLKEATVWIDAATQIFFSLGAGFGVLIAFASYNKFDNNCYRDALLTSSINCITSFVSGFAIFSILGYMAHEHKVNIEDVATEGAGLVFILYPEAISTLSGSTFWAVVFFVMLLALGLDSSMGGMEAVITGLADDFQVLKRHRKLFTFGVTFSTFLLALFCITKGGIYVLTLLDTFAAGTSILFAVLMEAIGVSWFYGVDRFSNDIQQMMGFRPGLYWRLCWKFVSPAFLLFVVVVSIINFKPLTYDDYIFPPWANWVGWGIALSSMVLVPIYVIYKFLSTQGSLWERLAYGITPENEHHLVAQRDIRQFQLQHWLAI
Sequence of 5-HT Transporter (Homo sapiens, UniProt P31645) (P31645 whole entry): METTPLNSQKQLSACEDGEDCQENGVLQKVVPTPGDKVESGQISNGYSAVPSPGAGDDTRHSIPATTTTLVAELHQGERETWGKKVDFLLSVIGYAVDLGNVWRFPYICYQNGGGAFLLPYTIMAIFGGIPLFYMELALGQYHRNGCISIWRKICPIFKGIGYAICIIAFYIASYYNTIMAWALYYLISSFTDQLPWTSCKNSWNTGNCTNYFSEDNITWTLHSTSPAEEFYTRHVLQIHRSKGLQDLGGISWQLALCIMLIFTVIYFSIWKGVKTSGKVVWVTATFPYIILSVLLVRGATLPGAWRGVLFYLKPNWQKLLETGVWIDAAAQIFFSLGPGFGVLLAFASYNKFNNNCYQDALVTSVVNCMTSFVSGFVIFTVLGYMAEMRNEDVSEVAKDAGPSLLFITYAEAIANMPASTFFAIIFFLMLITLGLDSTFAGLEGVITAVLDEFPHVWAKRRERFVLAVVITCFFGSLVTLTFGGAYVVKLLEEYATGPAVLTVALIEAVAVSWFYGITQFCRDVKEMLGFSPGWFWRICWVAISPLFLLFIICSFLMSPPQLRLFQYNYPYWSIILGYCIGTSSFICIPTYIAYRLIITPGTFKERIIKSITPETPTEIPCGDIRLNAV

For (−)-Desmethylcitalopram, the IC50 [1] is given as 42 nM, the Ki [1] is given as 17 nM and the “half-lives compared to citalopram” value [2] is given as “measurably longer”. The IC50 [3] was 815 nM, the Ki [3] was 756 nM and the IC50 [4] was 37600 nM. It also gave a Ki [4] of 17100 nM, an IC50 [5] of 1700 nM and an IC50 [6] of 110 nM. For the same compound, the IC50 [7] was 9400 nM, the IC50 [8] was 11 nM and the Ki [8] was 2.3 nM.
For `N#Cc1ccc2c(c1)COC2(CCCN)c1ccc(F)cc1` (single isomer, unassigned; (-)) [(−)-Didesmethylcitalopram], the IC50 [1] is given as 14 nM, the Ki [1] is given as 5.8 nM and the “half-lives compared to citalopram” value [2] is given as “measurably longer”. It also gave an IC50 [3] of 5520 nM, a Ki [3] of 5120 nM and an IC50 [4] of 38900 nM. The Ki [4] was 17800 nM, the IC50 [5] was 1300 nM and the IC50 [6] was 130 nM. For the same compound, the IC50 [7] was 2700 nM, the IC50 [8] was 27 nM and the Ki [8] was 5.5 nM.
For `N#Cc1ccc2c(c1)COC2(CCCN)c1ccc(F)cc1` (single isomer, unassigned; (+)) [(+)-Didesmethylcitalopram], the IC50 [1] is listed as 219 nM, the Ki [1] is listed as 90 nM and the “half-lives compared to citalopram” value [2] is listed as “measurably longer”. The IC50 [3] was 24200 nM, the Ki [3] was 22400 nM and the IC50 [4] was 54700 nM. For the same compound, the Ki [4] was 25000 nM, the IC50 [5] was 3300 nM and the IC50 [6] was 180 nM. For the same compound, the IC50 [7] was 11000 nM, the IC50 [8] was 19 nM and the Ki [8] was 3.9 nM.
For `CNCCCC1(c2ccc(F)cc2)OCc2cc(C#N)ccc21` (racemic) [desmethylcitalopram, (±)-1-(3-methylaminopropyl)-1-(4-fluorophenyl)-1,3-dihydroisobenzofuran-5-carbonitrile], the “inhibition of cytochrome P450 enzyme activity (not by more than)” value [9] is given as “mild degree”.
In the case of `CN(C)CCCC1(c2ccc(F)cc2)OCc2cc(C#N)ccc21` (racemic) [Racemic Citalopram, (±)-1-(3-dimethylaminopropyl)-1-(4-fluorophenyl)-1,3-dihydroisobenzofuran-5-carbonitrile, reference compound], the IC50 [5] is listed as 4900 nM, the “inhibition of cytochrome P450 enzyme activity (not by more than)” value [9] is listed as “mild degree” and the “affinity for neurotransmitter receptors, enzymes and other reuptake sites” value [10] is listed as “negligible affinity”.
In the case of `CNCCCC1(c2ccc(F)cc2)OCc2cc(C#N)ccc21` (single isomer, unassigned; (+)) [(+)-Desmethylcitalopram], the IC50 [3] is reported as 10300 nM, the Ki [3] is reported as 9570 nM and the IC50 [4] is reported as 27700 nM. The Ki [4] was 12700 nM, the IC50 [5] was 4100 nM and the IC50 [6] was 5.8 nM. For the same compound, the IC50 [7] was 7600 nM, the IC50 [8] was 1.3 nM and the Ki [8] was 0.27 nM.
